In one assay the test system is NCI-H460 (lung). In words: Low folate & high folate in vitro proliferation assay (Alamar Blue). Format: cell-based, human. As to conditions: for GI50: Homo sapiens. The method, then:
Cells lines were acquired from cell banks, see supplemental material, grown using the cell banks recommended culture conditions (Supplemental Table 3). In some experiments noted “low folate” the cells were washed and grown in folate free RPMI-1640 media (Gibco #27016-021) supplemented with 5 ml 1 M Hepes, 5 ml 100 mM Na pyruvate, 2.5 mg/ml glucose and 10% defined FBS (Hyclone #SH30070) per 500 mL media for 5–7 days to deplete intracellular folate levels prior to the start of the experiment. Where noted, cells were maintained in complete “high folate” RPMI-1640 media (ATCC #30-2001) with 10% defined FBS to contrast with the low folate conditions.
Cells were cultured using recommended culture conditions unless noted otherwise (Supplemental Table 3). Cells were plated, dosed with compound and incubated at 37 °C for approximately 2 doubling times as determined for each cell line. Cell Titer Glo (Promega) assay was used to measure proliferation according to manufacturer’s recommendations by measuring luminescence with Flexstation3 (Molecular Devices) with 500 ms integration time. […] The % response was fit to a four-parameter logistic equation using ACTIVITYBASE 4.0 to determine the absolute IC50 values.
For a limited number of cell lines, compound dosing was performed under high or low folate conditions with cell viability being determined with Alamar Blue rather than an ATP dependent assay. Cells were plated and treated as described above. Proliferation was measured using Alamar Blue Cell Viability Reagent (Invitrogen), and read after approximately 1.5–4 hours incubation at 37 °C on the Envision plate reader (Perkin Elmer) with excitation at 570 nm and emission at 585 nm. The % inhibition for each sample was calculated and fit as described above.

The next assay concerns the target T1, CHK1 (Homo sapiens, UniProt O14757).
T1 construct: purchased CEREP Panlabs (Eurofins)
T1 sequence (O14757 1-476): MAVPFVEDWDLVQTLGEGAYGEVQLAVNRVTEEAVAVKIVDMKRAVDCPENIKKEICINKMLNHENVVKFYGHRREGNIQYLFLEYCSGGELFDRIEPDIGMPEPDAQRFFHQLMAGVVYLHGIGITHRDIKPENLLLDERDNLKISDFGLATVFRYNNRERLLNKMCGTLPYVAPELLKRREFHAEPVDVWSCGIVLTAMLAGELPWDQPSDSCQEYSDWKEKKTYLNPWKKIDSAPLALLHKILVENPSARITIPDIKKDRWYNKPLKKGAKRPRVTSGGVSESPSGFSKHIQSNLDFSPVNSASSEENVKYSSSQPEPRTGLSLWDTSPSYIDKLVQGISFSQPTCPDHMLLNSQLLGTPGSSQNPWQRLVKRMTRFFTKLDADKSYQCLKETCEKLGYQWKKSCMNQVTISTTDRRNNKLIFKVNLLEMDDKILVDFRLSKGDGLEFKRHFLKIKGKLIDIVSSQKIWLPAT
In words: CEREP protein kinase assay. Format: biochemical.

Another assay addresses T2, FGR (Homo sapiens, UniProt P09769).
T2 construct: purchased CEREP Panlabs (Eurofins)
Briefly: CEREP protein kinase assay. Format: biochemical.

A further assay concerns the target T3, IRK (Homo sapiens, UniProt P06213).
T3 construct: purchased CEREP Panlabs (Eurofins)
In words: CEREP protein kinase assay. Format: biochemical.

The next assay addresses T4, MAPKAPK5 (Homo sapiens, UniProt Q8IW41).
T4 construct: purchased CEREP Panlabs (Eurofins)
T4 sequence (Q8IW41 1-473): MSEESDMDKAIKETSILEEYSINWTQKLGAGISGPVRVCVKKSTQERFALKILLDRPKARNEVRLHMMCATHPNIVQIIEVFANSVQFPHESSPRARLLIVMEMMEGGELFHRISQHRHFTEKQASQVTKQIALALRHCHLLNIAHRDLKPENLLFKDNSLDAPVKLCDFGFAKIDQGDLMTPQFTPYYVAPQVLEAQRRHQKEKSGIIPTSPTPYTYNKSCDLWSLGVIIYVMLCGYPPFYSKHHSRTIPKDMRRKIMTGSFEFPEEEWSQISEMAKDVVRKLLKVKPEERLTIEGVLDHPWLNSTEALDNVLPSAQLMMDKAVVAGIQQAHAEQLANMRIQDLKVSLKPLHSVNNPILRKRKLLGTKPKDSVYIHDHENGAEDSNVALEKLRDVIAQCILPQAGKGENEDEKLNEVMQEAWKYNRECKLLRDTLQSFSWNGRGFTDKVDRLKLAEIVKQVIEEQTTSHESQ
Briefly: CEREP protein kinase assay. Format: biochemical.

For the next assay, the target named is T5, TTK (Homo sapiens, UniProt P33981).
T5 construct: purchased CEREP Panlabs (Eurofins)
T5 sequence (P33981 1-857): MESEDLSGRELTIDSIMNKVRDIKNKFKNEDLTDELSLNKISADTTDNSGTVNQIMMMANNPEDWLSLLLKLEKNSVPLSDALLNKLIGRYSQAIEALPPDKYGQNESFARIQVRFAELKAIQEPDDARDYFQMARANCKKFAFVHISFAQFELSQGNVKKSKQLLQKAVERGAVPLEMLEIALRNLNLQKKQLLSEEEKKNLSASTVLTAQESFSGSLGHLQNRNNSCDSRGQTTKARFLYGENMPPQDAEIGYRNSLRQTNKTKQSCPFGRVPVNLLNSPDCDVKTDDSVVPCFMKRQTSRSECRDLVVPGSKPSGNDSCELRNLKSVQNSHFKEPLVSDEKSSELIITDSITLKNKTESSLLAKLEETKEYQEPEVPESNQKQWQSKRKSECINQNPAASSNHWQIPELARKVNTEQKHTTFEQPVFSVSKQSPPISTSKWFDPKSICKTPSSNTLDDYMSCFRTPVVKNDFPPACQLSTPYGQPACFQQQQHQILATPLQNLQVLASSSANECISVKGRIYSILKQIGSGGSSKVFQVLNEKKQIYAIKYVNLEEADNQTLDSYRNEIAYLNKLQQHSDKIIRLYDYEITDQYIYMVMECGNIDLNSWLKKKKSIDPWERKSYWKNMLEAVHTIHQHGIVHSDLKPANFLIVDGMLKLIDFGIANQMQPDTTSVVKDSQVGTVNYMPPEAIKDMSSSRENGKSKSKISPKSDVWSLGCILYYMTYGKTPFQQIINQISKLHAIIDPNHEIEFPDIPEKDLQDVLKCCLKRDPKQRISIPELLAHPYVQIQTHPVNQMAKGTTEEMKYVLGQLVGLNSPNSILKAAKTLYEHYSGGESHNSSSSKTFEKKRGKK
In words: CEREP protein kinase assay. Format: biochemical.

Read-outs that look alike come from different tables or passages of the source.

T2 sequence (P09769 whole entry): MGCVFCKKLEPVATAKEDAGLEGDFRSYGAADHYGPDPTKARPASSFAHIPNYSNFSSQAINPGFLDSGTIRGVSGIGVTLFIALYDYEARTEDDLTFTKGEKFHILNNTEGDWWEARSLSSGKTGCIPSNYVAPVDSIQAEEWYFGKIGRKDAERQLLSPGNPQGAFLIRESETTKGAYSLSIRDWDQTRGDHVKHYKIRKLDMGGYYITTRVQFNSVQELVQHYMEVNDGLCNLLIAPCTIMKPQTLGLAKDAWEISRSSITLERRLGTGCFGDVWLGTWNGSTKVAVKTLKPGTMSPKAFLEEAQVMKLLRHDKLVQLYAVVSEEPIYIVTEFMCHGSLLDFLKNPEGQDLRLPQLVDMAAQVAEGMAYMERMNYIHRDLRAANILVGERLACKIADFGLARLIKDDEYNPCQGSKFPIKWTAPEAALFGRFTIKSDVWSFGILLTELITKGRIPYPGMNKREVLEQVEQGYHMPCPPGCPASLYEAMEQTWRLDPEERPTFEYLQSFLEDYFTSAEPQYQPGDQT
T3 sequence (P06213 28-1382): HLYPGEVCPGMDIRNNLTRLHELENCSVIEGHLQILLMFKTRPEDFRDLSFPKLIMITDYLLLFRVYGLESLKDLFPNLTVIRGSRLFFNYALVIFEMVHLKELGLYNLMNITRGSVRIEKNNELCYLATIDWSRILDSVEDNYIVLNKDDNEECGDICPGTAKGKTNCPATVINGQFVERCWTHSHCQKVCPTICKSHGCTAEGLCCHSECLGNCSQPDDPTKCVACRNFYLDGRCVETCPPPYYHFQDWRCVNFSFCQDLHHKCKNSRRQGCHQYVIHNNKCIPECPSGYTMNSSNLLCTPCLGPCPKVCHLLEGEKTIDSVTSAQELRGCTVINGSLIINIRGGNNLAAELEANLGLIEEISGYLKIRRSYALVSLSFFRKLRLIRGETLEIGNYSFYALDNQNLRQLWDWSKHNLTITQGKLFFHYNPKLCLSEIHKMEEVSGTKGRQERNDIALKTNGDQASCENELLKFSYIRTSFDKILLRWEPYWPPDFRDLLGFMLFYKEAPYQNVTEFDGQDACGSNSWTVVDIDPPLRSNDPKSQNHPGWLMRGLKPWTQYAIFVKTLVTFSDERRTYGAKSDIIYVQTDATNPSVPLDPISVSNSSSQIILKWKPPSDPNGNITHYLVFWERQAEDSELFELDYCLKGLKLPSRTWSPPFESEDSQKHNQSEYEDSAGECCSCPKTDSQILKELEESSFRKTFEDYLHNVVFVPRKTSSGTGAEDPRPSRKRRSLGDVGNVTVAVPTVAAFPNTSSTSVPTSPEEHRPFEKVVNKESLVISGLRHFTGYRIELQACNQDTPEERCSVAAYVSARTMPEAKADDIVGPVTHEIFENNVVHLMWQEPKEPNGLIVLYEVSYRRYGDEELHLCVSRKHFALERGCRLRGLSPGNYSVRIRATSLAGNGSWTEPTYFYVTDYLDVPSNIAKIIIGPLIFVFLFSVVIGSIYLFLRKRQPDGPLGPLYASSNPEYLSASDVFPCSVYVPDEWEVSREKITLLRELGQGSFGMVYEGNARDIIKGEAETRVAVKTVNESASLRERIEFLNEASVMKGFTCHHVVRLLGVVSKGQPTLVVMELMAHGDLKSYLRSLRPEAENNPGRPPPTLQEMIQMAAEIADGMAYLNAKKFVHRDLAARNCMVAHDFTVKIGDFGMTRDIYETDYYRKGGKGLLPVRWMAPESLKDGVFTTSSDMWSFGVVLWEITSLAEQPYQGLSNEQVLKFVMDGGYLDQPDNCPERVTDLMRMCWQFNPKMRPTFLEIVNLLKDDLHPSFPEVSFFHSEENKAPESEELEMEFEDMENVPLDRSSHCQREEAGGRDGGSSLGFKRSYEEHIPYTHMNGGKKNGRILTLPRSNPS

As to `O=c1[nH]ccc2cc(F)c(NS(=O)(=O)c3ccc(N4CC[C@@H](O)C4)s3)cc12` [LSN3213128, N-(6-Fluoro-1-oxo-1,2-dihydroisoquinolin-7-yl)-5-[(3R)-3-hydroxypyrrolidin-1-yl]thiophene-2-sulfonamide], the “anti-proliferative effects on hypoxanthine supplementation” value with NCI-H460 (lung) (32 μM hypoxanthine) is recorded as “completely rescued”. The GI50 is 3470 ± 2090 nM with NCI-H460 (lung) (RPMI media, read-out: Alamar Blue GI50 Regular folate) and 16.4 ± 5.1 nM in the assay on NCI-H460 (lung) (low folate RPMI media, read-out: Alamar Blue GI50 Low folate). For the same compound, the inhibition at 0.2 µM was -8.96% on CHK1 (@ 0.2 uM); -8.47% against FGR (@ 0.2 uM); -0.8% against IRK (@ 0.2 uM); 3.51% against MAPKAPK5 (@ 0.2 uM); -4.62% on TTK (@ 0.2 uM). Besides, the inhibition at 2 µM was 14.5% at CHK1 (@ 2 uM); 3.62% at FGR (@ 2 uM); 10.6% against IRK (@ 2 uM); 13.3% on MAPKAPK5 (@ 2 uM); 6.44% on TTK (@ 2 uM). Moreover, the inhibition at 20 µM is 5.24% on CHK1 (@ 20 uM); 42.3% against FGR (@ 20 uM); 12.9% on IRK (@ 20 uM); -3.2% against MAPKAPK5 (@ 20 uM); 18.6% against TTK (@ 20 uM).

One may read the GI50 as the concentration giving 50% growth inhibition. Usually inhibition stands for the relative decrease from the control value, in per cent.
